For 17 compounds, IC50 results are on record in US9630922B2, “3-spiro-7-hydroxamic acid tetralins as HDAC inhibitors” (Forma Therapeutics, Inc., priority 2015, dated 2017).

Each structure is given as a SMILES string.

This assay deals with T1, HDAC6 (Homo sapiens, UniProt Q9UBN7).
T1 construct: Full length human recombinant HDAC6 protein was expressed in baculoviral system; made in house; host or cells: baculoviral system
T1 sequence (Q9UBN7 1-1215): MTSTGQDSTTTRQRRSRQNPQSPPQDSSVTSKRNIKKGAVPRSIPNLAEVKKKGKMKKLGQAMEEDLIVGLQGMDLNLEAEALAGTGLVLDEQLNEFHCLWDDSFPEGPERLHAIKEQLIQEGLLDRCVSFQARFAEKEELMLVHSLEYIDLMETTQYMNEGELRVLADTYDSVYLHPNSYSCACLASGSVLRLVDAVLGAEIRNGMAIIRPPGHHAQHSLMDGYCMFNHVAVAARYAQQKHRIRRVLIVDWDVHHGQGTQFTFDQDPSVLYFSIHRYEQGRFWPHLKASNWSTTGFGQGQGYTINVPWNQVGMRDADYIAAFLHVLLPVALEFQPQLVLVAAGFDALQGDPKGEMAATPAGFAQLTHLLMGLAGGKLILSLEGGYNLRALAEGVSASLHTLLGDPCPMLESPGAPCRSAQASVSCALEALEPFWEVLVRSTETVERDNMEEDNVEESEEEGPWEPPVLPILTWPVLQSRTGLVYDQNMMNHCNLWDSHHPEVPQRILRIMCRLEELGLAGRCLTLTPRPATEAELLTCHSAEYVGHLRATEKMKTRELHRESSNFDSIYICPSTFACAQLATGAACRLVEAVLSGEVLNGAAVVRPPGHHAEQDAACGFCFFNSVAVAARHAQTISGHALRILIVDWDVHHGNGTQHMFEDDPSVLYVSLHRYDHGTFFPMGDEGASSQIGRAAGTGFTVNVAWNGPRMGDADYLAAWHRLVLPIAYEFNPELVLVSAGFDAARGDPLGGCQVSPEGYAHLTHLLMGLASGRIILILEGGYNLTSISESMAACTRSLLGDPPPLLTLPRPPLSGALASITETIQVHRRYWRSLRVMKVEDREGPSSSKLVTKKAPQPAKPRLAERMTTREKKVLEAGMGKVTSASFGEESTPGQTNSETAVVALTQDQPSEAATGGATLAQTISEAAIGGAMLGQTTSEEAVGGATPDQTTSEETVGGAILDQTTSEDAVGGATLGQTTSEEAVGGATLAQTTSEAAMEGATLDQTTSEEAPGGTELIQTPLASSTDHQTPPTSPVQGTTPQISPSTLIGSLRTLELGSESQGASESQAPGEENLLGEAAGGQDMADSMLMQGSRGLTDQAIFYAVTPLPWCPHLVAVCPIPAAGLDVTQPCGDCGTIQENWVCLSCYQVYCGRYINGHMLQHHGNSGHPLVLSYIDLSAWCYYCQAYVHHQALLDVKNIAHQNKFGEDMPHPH
Nature of the assay: In vitro Histone Deacetylase Assay (enzymatic HDAC6 electrophoretic mobility shift assay). The class given is biochemical. Conditions: full length human recombinant HDAC6, 1 nM enzyme, 2 μM peptide substrate RHKK(Ac)-NH2, 25° C.; read-out: HDAC6 activity range. Put shortly: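 Full-length recombinant human HDAC6 (baculovirus-expressed, 1 nM) was incubated at 25 °C with 2 μM fluorescent RHKK(Ac)-NH2 peptide in HEPES pH 7.5, KCl, BSA, Triton X-100 and 1% DMSO, then SDS-quenched. Substrate and product were separated by microfluidic mobility shift, and IC50 came from 4-parameter fits of 12-point, 3-fold dilution curves.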
On to `CN1CCC2(CCc3cc(C(=O)NO)ccc3O2)C1=O` (centres unmarked) [Compound I-237, N-hydroxy-1′-methyl-2′-oxospiro[chromane-2,3′-pyrrolidine]-6-carboxamide], for which the IC50 was 100 to 500 nM.

For the compound `O=C(NO)c1ccc2c(c1)CCC1(CCN(c3ccccc3)C1=O)S2(=O)=O` (centres unmarked) [Compound I-238, N-hydroxy-2-oxo-1-phenylspiro[pyrrolidine-3,2′-thiochromane]-6′-carboxamide 1′,1′-dioxide], the IC50 was 100 to 500 nM.

In the case of `O=C(NO)c1ccc2c(c1)CCC1(CCN(Cc3ccccc3)C1=O)S2(=O)=O` (centres unmarked) [Compound I-239, 1-benzyl-N-hydroxy-2-oxospiro[pyrrolidine-3,2′-thiochromane]-6′-carboxamide 1′,1′-dioxide], the IC50 was 100 to 500 nM.

For `O=C(NO)c1ccc2c(c1)CCC1(CCN(c3cccnc3)C1=O)S2(=O)=O` (centres unmarked) [Compound I-240, N-hydroxy-2-oxo-1-(pyridin-3-yl)spiro[pyrrolidine-3,2′-thiochromane]-6′-carboxamide 1′,1′-dioxide], the IC50 was 100 to 500 nM.

For the compound `O=C(NO)c1ccc2c(c1)CCC1(CCN(CC3CCOCC3)C1=O)S2(=O)=O` (centres unmarked) [Compound I-241, N-hydroxy-2-oxo-1-((tetrahydro-2H-pyran-4-yl)methyl)spiro[pyrrolidine-3,2′-thiochromane]-6′-carboxamide 1′,1′-dioxide], the IC50 is > 500 nM.

In the case of `O=C(NO)c1ccc2c(c1)CCC1(CCN(Cc3ccncc3)C1=O)S2(=O)=O` (centres unmarked) [Compound I-242, N-hydroxy-2-oxo-1-(pyridin-4-ylmethyl)spiro[pyrrolidine-3,2′-thiochromane]-6′-carboxamide 1′,1′-dioxide], the IC50 is > 500 nM.

Consider `O=C(NO)c1ccc2c(c1)CCC1(CCNC1=O)S2(=O)=O` (centres unmarked) [Compound I-243, N-hydroxy-2-oxospiro[pyrrolidine-3,2′-thiochromane]-6′-carboxamide 1′,1′-dioxide], for which the IC50 is > 500 nM.

For `CN1CCC2(CCc3cc(C(=O)NO)ccc3S2(=O)=O)C1=O` (centres unmarked) [Compound I-244, N-hydroxy-1-methyl-2-oxospiro[pyrrolidine-3,2′-thiochromane]-6′-carboxamide 1′,1′-dioxide], the IC50 is > 500 nM.

Take `COc1ccc(CN2CCC3(CCc4cc(C(=O)NO)ccc4O3)CC2)cc1` [II-1, N-hydroxy-1′-(4-methoxybenzyl)spiro[chromane-2,4′-piperidine]-6-carboxamide]: the IC50 is > 500 nM.

For `O=C(NO)c1ccc2c(c1)CCC1(CCN(Cc3nc4ccccc4[nH]3)CC1)O2` [II-2, 1′-((1H-benzo[d]imidazol-2-yl)methyl)-N-hydroxyspiro[chromane-2,4′-piperidine]-6-carboxamide], the IC50 was > 500 nM.

Turning to `O=C(NO)c1ccc2c(c1)CCC1(CCN(C(=O)C3CCCCC3)CC1)O2` [II-3, 1′-(cyclohexanecarbonyl)-N-hydroxyspiro[chromane-2,4′-piperidine]-6-carboxamide], the IC50 is > 500 nM.

As to `COc1ccc(C(=O)N2CCC3(CCc4cc(C(=O)NO)ccc4O3)CC2)cc1` [II-4, N-hydroxy-1′-(4-methoxybenzoyl)spiro[chromane-2,4′-piperidine]-6-carboxamide], the IC50 was > 500 nM.

In the case of `COc1ccc(S(=O)(=O)N2CCC3(CCc4cc(C(=O)NO)ccc4O3)CC2)cc1` [II-5, N-hydroxy-1′-((4-methoxyphenyl)sulfonyl)spiro[chromane-2,4′-piperidine]-6-carboxamide], the IC50 is > 500 nM.

With `O=C(NO)c1ccc2c(c1)CCC1(CCN(S(=O)(=O)C3CCCCC3)CC1)O2` [II-6, 1′-(cyclohexylsulfonyl)-N-hydroxyspiro[chromane-2,4′-piperidine]-6-carboxamide], the IC50 is 100 to 500 nM.

For the compound `O=C(NO)c1ccc2c(c1)CCC1(CCN(C(=O)Nc3ccccc3)CC1)O2` [II-7, N6-hydroxy-N1′-phenylspiro[chromane-2,4′-piperidine]-1′,6-dicarboxamide], the IC50 lay within 100 to 500 nM.

On to `O=C(NO)c1ccc2c(c1)CCC1(CCN(C3CCCCC3)CC1)O2` [II-8, 1′-cyclohexyl-N-hydroxyspiro[chromane-2,4′-piperidine]-6-carboxamide], for which the IC50 was > 500 nM.

As to `O=C(NO)c1ccc2c(c1)CCC1(CCN(C(=O)N3CC4(CCOCC4)c4ccccc43)CC1)O2` [II-9, N-hydroxy-1′-(2′,3′,5′,6′-tetrahydrospiro[indoline-3,4′-pyran]-1-carbonyl)spiro[chromane-2,4′-piperidine]-6-carboxamide], the IC50 was > 500 nM.
